One data set deals with T1, human SGLT1 (Homo sapiens, UniProt P13866).
T1 construct: expressed in transfected cells
T1 sequence (P13866 1-664): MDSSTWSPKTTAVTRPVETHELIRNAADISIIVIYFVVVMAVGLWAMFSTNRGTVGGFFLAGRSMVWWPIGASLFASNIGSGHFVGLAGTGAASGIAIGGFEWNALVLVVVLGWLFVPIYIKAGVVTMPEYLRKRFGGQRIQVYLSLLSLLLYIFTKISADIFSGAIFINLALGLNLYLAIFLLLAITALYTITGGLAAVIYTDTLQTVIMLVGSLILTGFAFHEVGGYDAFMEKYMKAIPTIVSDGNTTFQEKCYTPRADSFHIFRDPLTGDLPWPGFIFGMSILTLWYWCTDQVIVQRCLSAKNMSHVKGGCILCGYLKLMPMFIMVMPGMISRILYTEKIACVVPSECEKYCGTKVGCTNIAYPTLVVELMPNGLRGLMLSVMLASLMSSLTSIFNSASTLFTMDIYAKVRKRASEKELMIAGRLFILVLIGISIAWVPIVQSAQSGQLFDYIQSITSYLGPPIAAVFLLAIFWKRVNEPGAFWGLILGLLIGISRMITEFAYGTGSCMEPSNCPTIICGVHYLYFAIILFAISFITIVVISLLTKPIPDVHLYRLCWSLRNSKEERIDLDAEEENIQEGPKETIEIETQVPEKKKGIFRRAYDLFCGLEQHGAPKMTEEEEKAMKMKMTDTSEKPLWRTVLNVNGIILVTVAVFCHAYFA
In words: hSGLT1 inhibitor activity experiment 2: 2-NBDG uptake by HEK293 cells stably expressing human SGLT1. The data set is classed as cell-based. On the procedure:
Inhibitory activity testing was performed with reference to a similar method described in document [Acta Pharmaceutica Sinica 2017, 52 (6): 897-903; Nature Protocols (2007), 2(3), 753-762; Journal of Biochemical and Biophysical Methods (2005), 64(3), 207-215; Diabetes Technology & Therapeutics (2011), 13(7), 743-775].
In this experiment, the in vitro activity assay was evaluated using the uptake of 2-NBDG (2-Deoxy-2-[(7-nitro-2,1,3-benzoxadiazol-4-yl)amino]-D-glucose, CAS NO: 186689-07-6) by human embryonic kidney epithelial cells (HEK293, stably expressing human SGLT1), and the SGLT1 inhibitory activity of the target compound was determined by measuring its half-maximal inhibitory concentration (IC50).
HEK293 cells that can stably express human SGLT1 gene were inoculated into a 96-well clear-bottom black plate containing DMEM medium. The cells were incubated at 37° C., 5% CO2 in a cell incubator. The medium in the 96-well plate was aspirated, and the plate was treated with low-glucose serum-free DMEM medium, and washed once with non-specific uptake buffer and once with Na^+-dependent uptake buffer. Uptake buffer containing test compound was added to each well of cells, followed by uptake buffer containing 2-NBDG for glucose uptake, and the cell plate was incubated at 37° C., 5% CO2. The compounds were gradiently diluted. The uptake reaction was stopped by removing the culture medium, and after washing the cells with ice-cold uptake buffer, the washing solution was removed. The cells were lysed by adding NaOH, and the content of 2-NBDG in the cells was detected by a fluorescence microplate reader. The protein concentration of the lysate was measured by BCA method, the uptake of 2-NBDG was quantified by fluorescence intensity/protein content, and the obtained data were analyzed using GraphPad Prism to determine the median inhibitory concentration (IC50) of the compound to be tested.

A short description of data set [1]: Pharmacokinetic study in rats. The class given is in vivo, rat. The following applies: 10 mg/kg, oral gavage, 0-24 hours. The method, then:
5. Pharmacokinetic Study in Rats • Experimental animals: SPF male SD rats; • Dosage and method of administration: 10 mg/kg, oral gavage. • Research compound: Dapagliflozin, the compound of Example 9, the compound of Example 10, the compound of Example 17, and the comparative compound 6;
Test method: Before administration (0), and 1, 4, 8, and 24 hours after administration, 0.2 ml of blood was collected from orbital venous plexus, anticoagulated with heparin, plasma was collected, and the blood drug concentration was determined.

The subject of data set [2] is type 2 diabetes mouse model. The experiment in a line: In vivo hypoglycemic efficacy experiment combined with sitagliptin. The following applies: 0.01, 0.05, 0.1 mg/kg combined with 20 mg/kg of sitagliptin, STZ and high-fat high-sugar diet mice. The method, then:
Model establishment: SPF grade Balb/C male mice were used in this experiment, and the establishment of the type 2 diabetes mouse model was induced by intraperitoneal injection of streptozotocin (STZ) supplemented by high-fat and high-sugar diet. • Group: 10 per group
Administration: normal group, model group, low-dose combined administration group (0.01 mg/kg of the compound of Example 10+20 mg/kg of sitagliptin), medium-dose combined administration group (0.05 mg/kg of the compound of Example 10+20 mg/kg of sitagliptin), high-dose combined administration group (0.1 mg/kg of the compound of Example 10+20 mg/kg of sitagliptin), sitagliptin group (20 mg/kg). The normal group and the model group were given the solvent by gavage.

The subject of another data set is SD rats. In words: Oral glucose tolerance test (OGTT) after continuous administration in rats for 14 days. The data set is classed as in vivo, rat. The method, then: • Experimental animals: SPF male SD rats; • Compound preparation: an appropriate amount of the compounds of Example 1, Example 2, Example 9, Example 10, and Example 17 were weighed, and uniformly suspended with an appropriate amount of 0.5% CMC-Na solution; • Preparation of glucose solution: an appropriate amount of glucose powder was weighed and dissolved with an appropriate amount of pure water; • Dosage and method of administration: 0.009 mg/kg, oral gavage.
Experimental process: the animals were fed a normal diet with consecutive administration for 14 days, and the glucose tolerance test was performed on day 15, blood glucose was detected before administration (−30 min), before giving glucose (0 min), and 10, 30, 60, and 120 min after giving glucose solution, and the defecation of animals was observed.

Data set [3] concerns microorganisms in rat feces. In words: Intestinal microbial metabolic stability in rat feces suspension. The data set is classed as in vitro ADME. The following applies: for Percentage of remaining compound: rat feces suspension, 37° C. On the procedure:
Methods: The collected rat feces were processed, and the feces suspension was obtained for the determination of metabolic stability. The mixed reaction system consisting of the rat feces suspension and the compound of […] was incubated at 37° C. for 3 h, 6 h, 12 h and 24 h. The compound of Example 10 in the incubation system was analyzed to determine the total amount of remaining compound. Wherein, “+” represents the remaining percentage being: <50%; “++” represents the remaining percentage being: 50% to 70%; “+++” represents the remaining percentage being: 70% to 90%; “++++” means the remaining percentage being: >90%.

Consider `C#CCN(C)C(=O)CN(C)CCNC(=O)C(C)(C)NC(=O)CCCc1ccc(Cc2cc([C@@H]3O[C@H](SC)[C@@H](O)[C@H](O)[C@H]3O)ccc2C)cc1` [Example 10], for which, on human SGLT1, the “activity of inhibiting SGLT1 (in words)” value was “significant activity of inhibiting SGLT1”. Also, the IC50 at human SGLT1 (2-NBDG uptake, HEK293 stably expressing human SGLT1, read-out: SGLT1 Inhibitory Activity) came out at 0.37 nM. Further, the “drug concentration in plasma” value in data set [1] was “did not reach the detection limit”. For the same compound, the “blood glucose level of diabetic model animals” value in data set [2] is “significantly reduce the blood glucose level”. In the data set with SD rats (0.009 mg/kg oral gavage, 14 days, OGTT on day 15), the “blood sugar level of rats (OGTT)” value was “significantly reduce the blood sugar level”. For the same compound, the “loose stools in the experimental animals” value in the data set with SD rats (rats, within 48 hours before and after the experiment) is reported as “no loose stools were observed”. This compound displayed a remaining compound in data set [3] (incubated with microorganisms in rat feces for about 24 hours) of over 70%. The “Percentage of remaining compound” value in data set [3] (incubation 3 h) is “++++ (“++++” means the remaining percentage being: >90%)”; in data set [3] (incubation 6 h), “+++ (“+++” represents the remaining percentage being: 70% to 90%)”; in data set [3] (incubation 12 h), “+++ (“+++” represents the remaining percentage being: 70% to 90%)”; in data set [3] (incubation 24 h), “+++ (“+++” represents the remaining percentage being: 70% to 90%)”.

The values are drawn from patent US12612427B2, “Aryl glucoside derivative, preparation method therefor and application thereof” (Shanghai Zheye Biotechnology Co. Ltd., priority 2020, dated 2026).
